Measured values published in US20180186796A1, “COMPOUNDS AND USES THEREOF” (LEAD DISCOVERY SIENA S.R.L., priority 2014, published 2018).
≈ marks a conversion by molar mass, not a printed value. Read-outs that look alike come from different tables or passages of the source. Each block holds one molecule with its values, some of them ahead of it.

Tests used:
[1] = PAMPA, intestinal (GI) permeability; conditions: for Papp / Papp at 5 h, 0.5 mM: PAMPA; for Papp: Table 6; for PAMPA GI (MR %): Membrane Retention; for Papp at 5 h, 0.5 mM: pH 7.4
Experimental: (§1) Donor solution (0.5 mM) was prepared by diluting 1 mM dimethylsulfoxide (DMSO) compound stock solution using phosphate buffer (pH 7.4, 0.025 M). […] Donor solution (150 μL) was added to each well of the filter plate. To each well of the acceptor plate were added 300 μL of solution (50% DMSO in phosphate buffer). All compounds were tested in three different plates on different days. The sandwich was incubated for 5 h at room temperature under gentle shaking. After the incubation time, the plates were separated, and samples were taken from both receiver and donor sides and analyzed using LC with UV detection at 280 nm.
(§2) Permeability (Papp) for PAMPA was calculated according to the following equation, obtained from Wohnsland and Faller^27 and Sugano et al.^28 equation with some modification in order to obtain permeability values in cm s^−1,
(§3) Drug concentration is estimated by using the peak area integration. Membrane retentions (%) were calculated according to the following equation:
(§4) where r is the ratio between drug concentration in the acceptor and equilibrium concentration, D, A, and Eq represented drug concentration in the donor, acceptor and equilibrium solution, respectively.
(§5) Donor solution of tested compounds (0.5 mM) was prepared by diluting 1 mM dimethylsulfoxide (DMSO) compound stock solution using phosphate buffer (pH 7.4, 25 mM). […] Donor solution (150 μL) was added to each well of the filter plate. To each well of the acceptor plate were added 300 μL of solution (50% DMSO in phosphate buffer). Compounds was tested in three different plates on different days. The sandwich was incubated for 5 h at room temperature under gentle shaking.
(§6) Permeability (Papp) for PAMPA was calculated according to the following equation, obtained from Wohnsland and Faller and Sugano et al.^27, 28.
(§7) Drug concentration is estimated by using the peak area integration. Membrane retention (%) was calculated according to the following equation:

[2] = target: T1, Recombinant human Src (Homo sapiens, UniProt P12931); test: Enzymatic assay on isolated Src; assay type: biochemical
T1 construct: purchased Upstate (Lake Placid, N.Y.)
T1 sequence (P12931 whole entry): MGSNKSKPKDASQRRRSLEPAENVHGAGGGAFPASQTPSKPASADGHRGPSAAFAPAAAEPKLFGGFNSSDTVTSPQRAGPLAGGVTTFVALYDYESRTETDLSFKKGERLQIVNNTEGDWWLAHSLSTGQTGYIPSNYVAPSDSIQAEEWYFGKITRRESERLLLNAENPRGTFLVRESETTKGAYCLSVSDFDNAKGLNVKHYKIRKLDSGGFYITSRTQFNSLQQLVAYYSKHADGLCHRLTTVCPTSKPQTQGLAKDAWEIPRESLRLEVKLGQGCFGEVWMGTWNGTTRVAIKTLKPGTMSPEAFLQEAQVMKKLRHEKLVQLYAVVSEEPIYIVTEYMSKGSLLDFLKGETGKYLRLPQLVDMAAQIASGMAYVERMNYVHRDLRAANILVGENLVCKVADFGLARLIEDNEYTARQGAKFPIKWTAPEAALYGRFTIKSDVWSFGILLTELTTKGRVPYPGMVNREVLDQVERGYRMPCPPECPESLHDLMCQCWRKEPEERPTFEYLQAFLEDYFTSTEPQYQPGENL
Text: Recombinant human Src was purchased from Upstate (Lake Placid, N.Y.).

[3] = Microsomal stability assay; conditions: for Metabolic Stab.: percentage of unmodified parent drug, human liver microsomes 60 min; for Metabolic Stab. %: percentage of unmodified drug, Table 8
[4] = target: recombinant Fyn (Homo sapiens, UniProt P06241); test: Enzymatic assay on isolated Fyn kinase
Chain of recombinant Fyn (P06241 whole entry, looked up): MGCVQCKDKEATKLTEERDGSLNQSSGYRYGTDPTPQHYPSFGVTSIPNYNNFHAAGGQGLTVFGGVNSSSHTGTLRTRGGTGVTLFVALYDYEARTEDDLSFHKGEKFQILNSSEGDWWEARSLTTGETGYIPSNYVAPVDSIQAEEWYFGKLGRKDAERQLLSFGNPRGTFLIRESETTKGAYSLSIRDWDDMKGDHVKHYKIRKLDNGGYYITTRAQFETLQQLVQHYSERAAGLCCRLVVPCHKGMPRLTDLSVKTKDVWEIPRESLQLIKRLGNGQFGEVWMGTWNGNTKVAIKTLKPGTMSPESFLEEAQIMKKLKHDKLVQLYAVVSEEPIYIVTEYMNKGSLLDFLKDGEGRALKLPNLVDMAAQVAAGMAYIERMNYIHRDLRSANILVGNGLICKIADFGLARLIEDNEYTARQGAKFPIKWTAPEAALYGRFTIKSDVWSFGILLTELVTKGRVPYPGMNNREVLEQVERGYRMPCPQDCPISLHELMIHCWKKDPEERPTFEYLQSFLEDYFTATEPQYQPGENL
Experimental: Kinase assays were performed in presence of 200 μM ATP and 100 μM peptide substrate. All inhibition assays were conducted with 0.01 μg active kinase, 0.33 μmol [^γ32P]ATP, 60 mM HEPES-NaOH pH 7.5, 3 μM Na-orthovanadate, 1.2 mM DTT, 50 μg/ml PEG20.0000, 10 mM magnesium acetate, 0.004% NP40 and 10% DMSO in a final volume of 10 μL. Fyn and inhibitors were preincubated in ice for 5 min; after addition of the substrates the reaction was conducted at 30° C. for 10 min. The reaction was stopped by adding 5 μL of 3% phosphoric acid. Aliquots (10 μL) were then transferred into a P30 Filtermat (PerkinElmer), washed five times with 75 mM phosphoric acid and once with acetone for 5 minute. The filter was dried and transferred to a sealable plastic bag, and scintillation cocktail (4 mL) was added. Spotted reactions were read in a MicroBeta Liquid (Perkinelmer) scintillation counter. The ID50 values were obtained according to the following equation:
Ki values toward recombinant Fyn were calculated using the equation:
according to a competitive mechanism of inhibition toward ATP substrate, where [SATP] is the concentration of ATP. Curve fitting was performed with the program GraphPad Prism version 5.00.

[5] = PAMPA, BBB permeability; conditions: for PAMPA BBB (MR %): Membrane Retention; for Papp at 5 h, 0.5 mM: PAMPA, pH 7.4
Experimental: as §1, §2, §3, §4, §5, §6, §7

[6] = Water solubility assay; conditions: for solubility at 24 h / solubility thermodynamic at 24 h: water, 20 °C, thermodynamic from solid; for H2O Solubility: Table 6
[7] = Enzymatic stability in human plasma; assay type: in vitro ADME; conditions: human, pooled human plasma diluted with phosphate buffer, pH 7.4; 37° C.; read-out: Stability Human Plasma t1/2 (converted)
[8] = Stability tests in phosphate buffer and methanol; assay type: physicochemical; conditions: 20° C., 48 h incubation
[9] = mean of at least two experiments, read-out: Enzymatic Data (Ki, μM) c-Src
[10] = read-out: Enzymatic Data (Ki, μM) Fyn

SMILES: CSc1nc(Nc2ccccc2)c2cnn(CCc3ccccc3)c2n1
Papp [1]: 7.60 10^−6 cm/sec
Ki [2, 9]: 1.46 µM
Metabolic Stab. [3]: 90%

SMILES: CSc1nc(Nc2cccc(F)c2)c2cnn(CCc3ccccc3)c2n1
Papp [1]: 9.33 10^−6 cm/sec
Ki [2, 9]: 1.06 µM

SMILES: CSc1nc(Nc2cccc(Br)c2)c2cnn(CCc3ccccc3)c2n1
Papp [1]: 3.26 10^−6 cm/sec
Ki [2, 9]: 0.2 µM

SMILES: CSc1nc(Nc2cccc(O)c2)c2cnn(CCc3ccccc3)c2n1
Papp [1]: 5.24 10^−6 cm/sec
Ki [2, 9]: 0.62 µM

SMILES: Clc1cccc(Nc2nc(SCCN3CCOCC3)nc3c2cnn3CCc2ccccc2)c1
Papp [1]: 3.50 10^−6 cm/sec
Ki [2, 9]: 1.2 µM

SMILES: CCSc1nc(Nc2cccc(F)c2)c2cnn(CC(C)c3ccccc3)c2n1 (stereo not shown)
Papp [1]: 1.72 10^−6 cm/sec
Ki [2, 9]: 0.79 µM
Metabolic Stab. [3]: 94%

SMILES: CCSc1nc(Nc2cccc(Cl)c2)c2cnn(CC(C)c3ccccc3)c2n1 (stereo not shown)
Papp [1]: 3.81 10^−6 cm/sec
Ki [2, 9]: 0.55 µM

SMILES: CCSc1nc(Nc2cccc(Br)c2)c2cnn(CC(C)c3ccccc3)c2n1 (stereo not shown)
Papp [1]: 2.03 10^−6 cm/sec
Ki [2]: ~0.1 µM
Ki [2, 9]: 0.1 µM

SMILES: CCSc1nc(Nc2cccc(O)c2)c2cnn(CC(C)c3ccccc3)c2n1 (stereo not shown)
Papp [1]: 4.91 10^−6 cm/sec
Ki [2, 9]: 0.11 µM

SMILES: CC(Cn1ncc2c(Nc3ccccc3)nc(SCCN3CCOCC3)nc21)c1ccccc1 (stereo not shown)
Papp [1]: 3.66 10^−6 cm/sec
Ki [2, 9]: 1.44 µM

SMILES: CC(Cn1ncc2c(Nc3cccc(F)c3)nc(SCCN3CCOCC3)nc21)c1ccccc1 (stereo not shown)
Papp [1]: 6.51 10^−6 cm/sec
Ki [2, 9]: 2.34 µM

SMILES: CC(Cn1ncc2c(Nc3cccc(Cl)c3)nc(SCCN3CCOCC3)nc21)c1ccccc1 (stereo not shown)
Papp [1]: 5.51 10^−6 cm/sec
Ki [2, 9]: 0.97 µM

SMILES: CCCCSc1nc(Nc2cccc(O)c2)c2cnn(CC(Cl)c3ccccc3)c2n1 (stereo not shown)
Papp [1]: 3.43 10^−6 cm/sec
Ki [2, 9]: 0.13 µM

SMILES: CC(C)Sc1nc(Nc2ccccc2)c2cnn(CC(Cl)c3ccccc3)c2n1 (stereo not shown)
Ki [2, 9]: 0.3 µM

SMILES: CC(C)Sc1nc(Nc2cccc(F)c2)c2cnn(CC(Cl)c3ccccc3)c2n1 (stereo not shown)
Ki [2, 9]: 0.26 µM

SMILES: CC(C)Sc1nc(Nc2cccc(Br)c2)c2cnn(CC(Cl)c3ccccc3)c2n1 (stereo not shown)
Ki [2, 9]: 0.62 µM

SMILES: ClC(Cn1ncc2c(Nc3ccccc3)nc(SC3CCCC3)nc21)c1ccccc1 (stereo not shown)
Papp [1]: 13 10^−6 cm/sec
Ki [2, 9]: 0.12 µM
Metabolic Stab. [3]: 94%

Ki [4, 10]: 1.62 µM
SMILES: CC(Cn1nc(-c2ccc3[nH]ccc3c2)c2c(N)ncnc21)c1ccccc1 (stereo not shown)

Ki [4]: > 100 µM
SMILES: CCCCSc1nc(NCCc2ccccc2)c2cnn(CC(Cl)c3ccccc3)c2n1 (stereo not shown)

Ki [4]: > 100 µM
SMILES: ClC(Cn1ncc2c(NCCc3ccccc3)nc(SC3CCCC3)nc21)c1ccccc1 (stereo not shown)

Ki [4]: > 100 µM
SMILES: ClC(Cn1ncc2c(NCCc3ccccc3)nc(SCCN3CCOCC3)nc21)c1ccccc1 (stereo not shown)

Ki [4, 10]: 1.49 µM
SMILES: COc1ccc(-c2nn(CC(Cl)c3ccccc3)c3ncnc(N)c23)cc1 (stereo not shown)

SMILES: CNc1nc(SC)nc2c1c(-c1ccccc1)nn2CCc1ccccc1
Ki [4]: > 10 µM

SMILES: COC(Cn1nc(-c2ccccc2)c2c(N)nc(SC)nc21)c1ccccc1 (stereo not shown)
Ki [4]: > 10 µM

SMILES: ClC(Cn1ncc2c(NCc3ccccc3)ncnc21)c1ccccc1 (stereo not shown) [Si3]
Ki ([4]; read-out: Ki Fyn): 3.5 µM

PAMPA BBB (MR %) [5]: (24.5) %
Papp at 5 h, 0.5 mM [5]: 6.17 ×10⁻⁶ cm/s
PAMPA GI (MR %) [1]: (33.0) %
Papp at 5 h, 0.5 mM [1]: 7.4 ×10⁻⁶ cm/s
solubility at 24 h [6]: 0.166 µM (≈ 0.0704 µg/mL)
solubility thermodynamic at 24 h [6]: 0.07 µg/mL (≈ 0.165 µM)
Metabolic Stab. % [3]: 96.2%
SMILES: CSc1nc(NCCc2ccccc2)c2cnn(CC(Cl)c3ccccc3)c2n1 (stereo not shown) [Si35, 1-(2-chloro-2-phenylethyl)-6-(methylthio)-N-phenethyl-1H-pyrazolo[3,4-d]pyrimidin-4-amine]

SMILES: OCCNc1nc(NCc2ccccc2)c2cnn(/C=C/c3ccccc3)c2n1 [Si74, 2-(4-benzylamino-1-styryl-1H-pyrazolo[3,4-d]pyrimidin-6-ylamino)-ethanol]
Ki ([4]; read-out: Ki Fyn): 1.15 µM

PAMPA BBB (MR %) [5]: (39.6) %
Papp at 5 h, 0.5 mM [5]: 3.14 ×10⁻⁶ cm/s
PAMPA GI (MR %) [1]: (69.9) %
Papp at 5 h, 0.5 mM [1]: 0.26 ×10⁻⁶ cm/s
solubility at 24 h [6]: 0.295 µM (≈ 0.127 µg/mL)
solubility thermodynamic at 24 h [6]: 0.13 µg/mL (≈ 0.302 µM)
Metabolic Stab. % [3]: 91.1%
SMILES: CSc1nc(Nc2cccc(Cl)c2)c2cnn(CC(Cl)c3ccccc3)c2n1 (stereo not shown) [Si83, 1-(2-chloro-2-phenylethyl)-N-(3-chlorophenyl)-6-(methylthio)-1H-pyrazolo[3,4-d]pyrimidin-4-amine]

SMILES: CCCNc1nc(SCCN2CCOCC2)nc2c1cnn2CC(Cl)c1ccccc1 (stereo not shown) [Si109, 1-(2-chloro-2-phenylethyl)-6-((2-morpholinoethyl)thio)-N-propyl-1H-pyrazolo[3,4-d]pyrimidin-4-amine]
Ki [4]: 7.5 to 16 µM

Ki [4]: 7.5 to 16 µM
SMILES: ClC(Cn1ncc2c(NCc3ccccc3)nc(Cc3ccccc3)nc21)c1ccccc1 (stereo not shown) [Si164, N,6-dibenzyl-1-(2-chloro-2-phenylethyl)-1H-pyrazolo[3,4-d]pyrimidin-4-amine]

SMILES: Fc1cccc(Nc2nc(SC3CCCC3)nc3c2cnn3CC(Cl)c2ccccc2)c1 (stereo not shown) [Si170, 1-(2-Chloro-2-phenylethyl)-6-(cyclopentylthio)-N-(3-fluorophenyl)-1H-pyrazolo[3,4-d]pyrimidin-4-amine]
Ki ([2]; read-out: Ki c-Src): ~0.1 µM

SMILES: CCCCSc1nc(Nc2cccc(Cl)c2)c2cnn(CC(Cl)c3ccccc3)c2n1 (stereo not shown) [Si174]
Ki ([4]; read-out: Ki Fyn): 1.4 µM

SMILES: Fc1ccc(CNc2nc(SCCN3CCOCC3)nc3c2cnn3CC(Cl)c2ccccc2)cc1 (stereo not shown) [Si180, 1-(2-chloro-2-phenylethyl)-N-(4-fluorobenzyl)-6-((2-morpholinoethyl)thio)-1H-pyrazolo[3,4-d]pyrimidin-4-amine]
Ki [4]: 7.5 to 16 µM

Ki [4]: 7.5 to 16 µM
SMILES: CSc1nc(NCCc2cccc(Cl)c2)c2cnn(/C=C/c3ccccc3)c2n1 [Si215, N-[2-(3-chlorophenyl)ethyl]-6-(methylthio)-1-[2-phenylvinyl]-1H-pyrazolo[3,4-d]pyrimidin-4-amine]

SMILES: Clc1ccccc1CNc1ncnc2c1cnn2CC(Cl)c1ccc(Br)cc1 (stereo not shown) [Si221]
PAMPA BBB ([5]; Blood Brain Barrier PAMPA): 13.23 10^−6 cm · sec^−1
PAMPA BBB (MR %) [5]: (7.3) %
PAMPA GI ([1]; Gastrointestinal PAMPA, Table 8): 8.78 10^−6 cm · sec^−1
PAMPA GI (MR %) [1]: (21.0) %
H2O Sol. (Log S) ([6]; Table 8): (<−8.60) log mol · L^−1
H2O Sol. ([6]; Table 8, 20° C., 24 h): <0.01 µg/mL
Metabolic Stab. % [3]: 95.2%

SMILES: CC(Cn1ncc2c(Nc3cccc(O)c3)nc(SCCN3CCOCC3)nc21)c1ccccc1.Cl (stereo not shown) [Si329, 3-{[6-[(2-Morpholin-4-ylethyl)thio]-1-(2-phenylpropyl)-1H-pyrazolo[3,4-d]pyrimidin-4-yl]amino}phenol hydrochloride]
Papp [1]: 6.81 10^−6 cm/sec
H2O Solubility [6]: 1 µg/mL
Metabolic Stab. [3]: 99%

SMILES: Cl.Oc1cccc(Nc2nc(SCCN3CCOCC3)nc3c2cnn3CCc2ccccc2)c1 [Si332, 3-{[6-[(2-Morpholin-4-ylethyl)thio]-1-(2-phenylethyl)-1H-pyrazolo[3,4-d]pyrimidin-4-yl]amino}phenol hydrochloride]
Papp [1]: 6.38 10^−6 cm/sec
H2O Solubility [6]: 97 µg/mL
solubility value ([6]; aqueous): 97 µg/mL
Metabolic Stab. [3]: 97%

SMILES: CC(Cn1nc(-c2ccc(Cl)cc2)c2c(N)ncnc21)c1ccccc1 (stereo not shown) [Si337, 3-(4-Chlorophenyl)-1-(2-phenylpropyl)-1H-pyrazolo[3,4-d]pyrimidin-4-amine]
Ki [4]: 0.78 µM
decreased Fyn activity on substitution of chlorine by methyl in N1 side chain ([4]; Si312 vs Si244, Si337 vs Si308, Si338 vs Si309): about 10 fold

Papp at 5 h, 0.5 mM [1]: 2.15 ×10⁻⁶ cm/s
Ki [2, 9]: 0.1 µM
Metabolic Stab. [3]: 97%
SMILES: Fc1ccc(CCn2ncc3c(Nc4cccc(Cl)c4)nc(SCCN4CCOCC4)nc32)cc1 [drawing 171]

SMILES: Fc1cccc(Nc2nc(SC3CCCC3)nc3c2cnn3CC(Cl)c2ccccc2)c1 (stereo not shown) [drawing 191, reference compound]
Ki [4]: > 100 µM

SMILES: CCCNc1nc(SCCN2CCOCC2)nc2c1cnn2CC(Cl)c1ccccc1 (stereo not shown) [drawing 192]
Ki [4, 10]: 8.15 µM

SMILES: Fc1ccc(CNc2nc(SCCN3CCOCC3)nc3c2cnn3CC(Cl)c2ccccc2)cc1 (stereo not shown) [drawing 193]
Ki [4, 10]: 15.5 µM

Ki [4]: > 100 µM
SMILES: CCC(C)Sc1nc(NCc2ccccc2)c2cnn(CC(Cl)c3ccccc3)c2n1 (stereo not shown) [drawing 195]

Ki [4]: > 100 µM
SMILES: CCC(C)Sc1nc(NCCc2ccccc2)c2cnn(CC(Cl)c3ccccc3)c2n1 (stereo not shown) [drawing 196]

Ki [4, 10]: 16 µM
SMILES: CSc1nc(NCCc2cccc(Cl)c2)c2cnn(/C=C/c3ccccc3)c2n1 [drawing 198]

Ki [4, 10]: 13 µM
SMILES: ClC(Cn1ncc2c(NCc3ccccc3)nc(Cc3ccccc3)nc21)c1ccccc1 (stereo not shown) [drawing 200]

SMILES: CC(=O)c1ccc(-c2nn(CC(C)c3ccccc3)c3ncnc(N)c23)cc1 (stereo not shown) [drawing 206]
Ki [4]: > 10 µM

PAMPA BBB (MR %) [5]: (88.8) %
Papp at 5 h, 0.5 mM [5]: 0.01 ×10⁻⁶ cm/s
half-life at 100 μM [7]: 35.3 h
PAMPA GI (MR %) [1]: (86.1) %
Papp at 5 h, 0.5 mM [1]: 0.85 ×10⁻⁶ cm/s
solubility at 24 h [6]: 182 µM (≈ 108 µg/mL)
solubility thermodynamic at 24 h [6]: 107 µg/mL (≈ 180 µM)
half-life at 500 μM ([8]; methanol, read-out: Stability MeOH t1/2): > 48 h
half-life at 500 μM ([8]; phosphate buffer, pH 7.4, read-out: Stability PBS pH 7.4 t1/2): > 48 h
SMILES: CSc1nc(N(CCc2ccccc2)C(=O)OCCN2CCN(C)CC2)c2cnn(CC(Cl)c3ccccc3)c2n1 (stereo not shown) [proSi35, 2-(4-methylpiperazin-1-yl)ethyl (1-(2-chloro-2-phenylethyl)-6-(methylthio)-1H-pyrazolo[3,4-d]pyrimidin-4-yl)(phenethyl)carbamate]
